Experimental data taken from PubChem BioAssay (NCI).
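Five compound concentrations were applied to cells in 96-well plates for 48 hours; endpoints were derived by simple linear interpolation of the resulting dose-response curve. TGI: total growth inhibition.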

Legend:
Experiment in all cases: growth of human tumour cells (NCI), 48 h
SNB-19 CNS = tested on: SNB-19 CNS
CAKI-1 renal = tested on: CAKI-1 renal
OVCAR-8 ovarian = tested on: OVCAR-8 ovarian
EKVX NSCLC = tested on: EKVX NSCLC
OVCAR-5 ovarian = tested on: OVCAR-5 ovarian
A498 renal = tested on: A498 renal
A549 NSCLC = tested on: A549 NSCLC
TK-10 renal = tested on: TK-10 renal
HOP-92 NSCLC = tested on: HOP-92 NSCLC
HOP-62 NSCLC = tested on: HOP-62 NSCLC
MCF7 breast = tested on: MCF7 breast
HS 578T breast = tested on: HS 578T breast
MALME-3M melanoma = tested on: MALME-3M melanoma
SK-MEL-2 melanoma = tested on: SK-MEL-2 melanoma
PC-3 prostate = tested on: PC-3 prostate
MDA-N = tested on: MDA-N
NCI-H23 lung = tested on: NCI-H23 lung
MDA-MB-435 = tested on: MDA-MB-435
CCRF-CEM leukemia = tested on: CCRF-CEM leukemia
SW-620 colon = tested on: SW-620 colon
UO-31 renal = tested on: UO-31 renal
KM12 colon = tested on: KM12 colon
NCI-H226 lung = tested on: NCI-H226 lung
HCT-116 colon = tested on: HCT-116 colon
RPMI-8226 leukemia = tested on: RPMI-8226 leukemia
RXF 393 renal = tested on: RXF 393 renal
SN12C renal = tested on: SN12C renal
COLO 205 colon = tested on: COLO 205 colon
SF-539 CNS = tested on: SF-539 CNS
ACHN renal = tested on: ACHN renal
SF-295 CNS = tested on: SF-295 CNS
SK-OV-3 ovarian = tested on: SK-OV-3 ovarian
NCI/ADR-RES ovarian = tested on: NCI/ADR-RES ovarian
T-47D breast = tested on: T-47D breast
HCT-15 colon = tested on: HCT-15 colon
DU-145 prostate = tested on: DU-145 prostate
SNB-75 CNS = tested on: SNB-75 CNS
UACC-257 melanoma = tested on: UACC-257 melanoma
BT-549 breast = tested on: BT-549 breast
UACC-62 melanoma = tested on: UACC-62 melanoma
SR leukemia = tested on: SR leukemia
OVCAR-3 ovarian = tested on: OVCAR-3 ovarian
U251 CNS = tested on: U251 CNS
HL-60(TB) leukemia = tested on: HL-60(TB) leukemia
IGROV1 ovarian = tested on: IGROV1 ovarian
MOLT-4 leukemia = tested on: MOLT-4 leukemia
NCI-H522 lung = tested on: NCI-H522 lung
LOX IMVI melanoma = tested on: LOX IMVI melanoma
MDA-MB-231 breast = tested on: MDA-MB-231 breast
NCI-H460 lung = tested on: NCI-H460 lung
K-562 leukemia = tested on: K-562 leukemia
OVCAR-4 ovarian = tested on: OVCAR-4 ovarian
SF-268 CNS = tested on: SF-268 CNS
M14 melanoma = tested on: M14 melanoma
786-0 renal = tested on: 786-0 renal
SK-MEL-5 melanoma = tested on: SK-MEL-5 melanoma
HT29 colon = tested on: HT29 colon
SK-MEL-28 melanoma = tested on: SK-MEL-28 melanoma
HCC-2998 colon = tested on: HCC-2998 colon

## NC(N)=NS(=O)(=O)c1ccc(NC(=O)c2cccc3c(NNc4ccc(C(=O)O)cc4)c4ccccc4nc23)cc1
SNB-19 CNS
  TGI: > 100 µM
CAKI-1 renal
  TGI: > 100 µM
OVCAR-8 ovarian
  TGI: > 100 µM
EKVX NSCLC
  TGI: > 100 µM
OVCAR-5 ovarian
  TGI: > 100 µM
A498 renal
  TGI: 98.2 µM
A549 NSCLC
  TGI: > 100 µM
TK-10 renal
  TGI: > 100 µM
HOP-92 NSCLC
  TGI: > 100 µM
HOP-62 NSCLC
  TGI: > 100 µM
MCF7 breast
  TGI: > 100 µM
HS 578T breast
  TGI: > 100 µM
MALME-3M melanoma
  TGI: > 100 µM
SK-MEL-2 melanoma
  TGI: 95.7 µM
PC-3 prostate
  TGI: > 100 µM
MDA-N
  TGI: > 100 µM
NCI-H23 lung
  TGI: > 100 µM
MDA-MB-435
  TGI: > 100 µM
CCRF-CEM leukemia
  TGI: 85.2 µM
SW-620 colon
  TGI: > 100 µM
UO-31 renal
  TGI: > 100 µM
KM12 colon
  TGI: > 100 µM
NCI-H226 lung
  TGI: > 100 µM
HCT-116 colon
  TGI: > 100 µM
RPMI-8226 leukemia
  TGI: > 100 µM
RXF 393 renal
  TGI: > 100 µM
SN12C renal
  TGI: > 100 µM
COLO 205 colon
  TGI: > 100 µM
SF-539 CNS
  TGI: > 100 µM
ACHN renal
  TGI: > 100 µM
SF-295 CNS
  TGI: > 100 µM
SK-OV-3 ovarian
  TGI: > 100 µM
NCI/ADR-RES ovarian
  TGI: > 100 µM
T-47D breast
  TGI: > 100 µM
HCT-15 colon
  TGI: > 100 µM
DU-145 prostate
  TGI: > 100 µM
SNB-75 CNS
  TGI: > 100 µM
UACC-257 melanoma
  TGI: > 100 µM
BT-549 breast
  TGI: > 100 µM
UACC-62 melanoma
  TGI: > 100 µM
SR leukemia
  TGI: > 100 µM
OVCAR-3 ovarian
  TGI: > 100 µM
U251 CNS
  TGI: > 100 µM
HL-60(TB) leukemia
  TGI: > 100 µM
IGROV1 ovarian
  TGI: > 100 µM
MOLT-4 leukemia
  TGI: > 100 µM
NCI-H522 lung
  TGI: > 100 µM
LOX IMVI melanoma
  TGI: > 100 µM
MDA-MB-231 breast
  TGI: > 100 µM
NCI-H460 lung
  TGI: > 100 µM
K-562 leukemia
  TGI: > 100 µM
OVCAR-4 ovarian
  TGI: > 100 µM
SF-268 CNS
  TGI: > 100 µM
M14 melanoma
  TGI: > 100 µM
786-0 renal
  TGI: > 100 µM
SK-MEL-5 melanoma
  TGI: > 100 µM
HT29 colon
  TGI: > 100 µM
SK-MEL-28 melanoma
  TGI: > 100 µM
HCC-2998 colon
  TGI: > 100 µM

## COc1cc(C2c3cc4c(cc3OC(N3CCCCC3)C2C)OCO4)cc(OC)c1OC (stereo not drawn)
SNB-19 CNS
  TGI: 26.2 µM
CAKI-1 renal
  TGI: 17.5 µM
OVCAR-8 ovarian
  TGI: > 63.6 µM
EKVX NSCLC
  TGI: > 100 µM
OVCAR-5 ovarian
  TGI: > 45.7 µM
A498 renal
  TGI: 12.8 µM
A549 NSCLC
  TGI: 36.1 µM
TK-10 renal
  TGI: 35.4 µM
HOP-92 NSCLC
  TGI: 48.1 µM
HOP-62 NSCLC
  TGI: 10.2 µM
MCF7 breast
  TGI: 19.4 µM
HS 578T breast
  TGI: 7.23 µM
MALME-3M melanoma
  TGI: > 84.6 µM
SK-MEL-2 melanoma
  TGI: 14.9 µM
PC-3 prostate
  TGI: > 100 µM
MDA-N
  TGI: 3.28 µM
NCI-H23 lung
  TGI: > 49.8 µM
MDA-MB-435
  TGI: 2.91 µM
CCRF-CEM leukemia
  TGI: 23.2 µM
SW-620 colon
  TGI: > 55.4 µM
UO-31 renal
  TGI: 46.2 µM
KM12 colon
  TGI: 37.4 µM
NCI-H226 lung
  TGI: 13.5 µM
HCT-116 colon
  TGI: 15.3 µM
RPMI-8226 leukemia
  TGI: 37.9 µM
RXF 393 renal
  TGI: 5.49 µM
SN12C renal
  TGI: > 100 µM
COLO 205 colon
  TGI: 11.3 µM
SF-539 CNS
  TGI: 5.9 µM
ACHN renal
  TGI: 28.7 µM
SF-295 CNS
  TGI: 5.77 µM
SK-OV-3 ovarian
  TGI: 12.6 µM
NCI/ADR-RES ovarian
  TGI: 17.1 µM
T-47D breast
  TGI: > 53.8 µM
HCT-15 colon
  TGI: > 100 µM
DU-145 prostate
  TGI: 19.8 µM
SNB-75 CNS
  TGI: 19.3 µM
UACC-257 melanoma
  TGI: > 82.7 µM
BT-549 breast
  TGI: > 100 µM
UACC-62 melanoma
  TGI: 47 µM
SR leukemia
  TGI: > 54.2 µM
OVCAR-3 ovarian
  TGI: 6.66 µM
U251 CNS
  TGI: 12.7 µM
HL-60(TB) leukemia
  TGI: > 22.2 µM
IGROV1 ovarian
  TGI: 26 µM
MOLT-4 leukemia
  TGI: 67.4 µM
NCI-H522 lung
  TGI: 9.99 µM
LOX IMVI melanoma
  TGI: 45 µM
MDA-MB-231 breast
  TGI: 21 µM
NCI-H460 lung
  TGI: 18 µM
K-562 leukemia
  TGI: 13.7 µM
OVCAR-4 ovarian
  TGI: > 100 µM
SF-268 CNS
  TGI: > 53.7 µM
M14 melanoma
  TGI: 15 µM
786-0 renal
  TGI: 16.3 µM
SK-MEL-5 melanoma
  TGI: 17.6 µM
HT29 colon
  TGI: 19.8 µM
SK-MEL-28 melanoma
  TGI: > 100 µM
HCC-2998 colon
  TGI: 8.39 µM
